Test results taken from patent publication US5750540A, “1,4-di-substituted piperidine derivatives” (Banyu Pharmaceutical Co., Ltd., priority 1995, dated 1998).

Assays:
[1] = biological target: T1, muscarinic M1 receptors (Rattus norvegicus, UniProt P08482); assay: Inhibition of binding to muscarinic M1 receptors ([3H]-telenzepine, cerebral cortex membrane)
T1 construct: a mixture of a membrane specimen from the cerebral cortex; from tissue; host or cells: rat cerebral cortex membranes (SD rat)
T1 sequence (P08482 1-460): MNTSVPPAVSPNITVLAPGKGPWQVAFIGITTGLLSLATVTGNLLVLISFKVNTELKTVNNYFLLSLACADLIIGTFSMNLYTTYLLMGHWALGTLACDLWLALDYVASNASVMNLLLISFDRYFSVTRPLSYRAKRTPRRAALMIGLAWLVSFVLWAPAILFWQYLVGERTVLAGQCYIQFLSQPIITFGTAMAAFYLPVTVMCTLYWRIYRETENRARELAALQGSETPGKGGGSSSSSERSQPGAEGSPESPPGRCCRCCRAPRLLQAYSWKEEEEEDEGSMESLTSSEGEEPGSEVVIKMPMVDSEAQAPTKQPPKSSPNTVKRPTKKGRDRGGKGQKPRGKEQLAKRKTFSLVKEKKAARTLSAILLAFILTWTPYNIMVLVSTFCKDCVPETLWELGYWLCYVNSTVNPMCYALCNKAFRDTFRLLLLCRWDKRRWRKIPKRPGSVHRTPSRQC
Description: (§1) In these tests, their inhibitory and antagonistic effects were expressed in terms of the dissociation constant (Ki) of each test compound which was calculated from its concentration (IC50 ) causing a 50% inhibition of the binding of a labeled ligand to muscarinic receptors. As the labeled ligand, [^3 H]-telenzepine was used for the muscarinic M1 receptors and [^3 H]-N-methylscopolamine for the muscarinic M2 and M3 receptors.
(§2) A male SD strain rat (purchased from Nippon Charles River Co., Ltd.), weighing about 250-350 g, was sacrificed, and the cerebral cortex, heart and lacrimal glands were excised. Using a Polytron (setting 5), each organ was homogenized in 5 volumes of an ice-cold buffer solution (pH 7.4) containing 50 mM tris-HCl, 5 mM magnesium chloride, 1 mM trisodium ethylenediaminetetraacetate and 20% sucrose. The resulting homogenate was centrifuged at 3,000×g at 4° C. for 15 minutes, and the supernatant was filtered through gauze and ultracentrifuged at 100,000×g at 4° C. for 45 minutes. The resulting precipitate was suspended in an ice-cold buffer solution (pH 7.4) containing 50 mM tris-HCl and 5 mM magnesium chloride (hereinafter referred briefly to as "tris buffer") and ultracentrifuged at 100,000×g at 4° C. for 45 minutes. The resulting precipitate was suspended in tris buffer so as to give a concentration of 50 mg/ml and stored at -80° C. till use. The membrane specimens so prepared were thawed prior to use and submitted to tests for the inhibition of binding to muscarinic receptors.
2) Tests for the inhibition of binding to the muscarinic M1 receptors
These tests were performed according to a modification of the method of Hargreaves et al. [Br. J. Pharmacol., Vol. 107, pp. 494-501 (1992)]. Specifically, a mixture of a membrane specimen from the cerebral cortex, 1 nM [^3 H]-telenzepine (85 Ci/mmol; manufactured by New England Nuclear) and a test compound in 0.5 ml of tris buffer was incubated at room temperature (about 20°-25° C.) for 120 minutes. After the addition of 0.5 ml of ice-cold tris buffer, the mixture was filtered by suction through a glass filter (Packard Unifilter Plate GF/C). Then, the filter was washed four times with 1 ml portions of ice-cold tris buffer and dried at 50° C. for an hour. After the addition of a scintillator (Packard Microscinti 0), the radioactivity of [^3 H]-telenzepine adsorbed to the filter was measured with a microplate scintillation counter (Packard Topcount). The nonspecific binding of [^3 H]-telenzepine to receptors was determined by the addition of […] pirenzepine. According to the method of Cheng and Prusoff [Biochem. Pharmacol., Vol. 22, pp. 3099-3108 (1973)], the affinity of the test compound (i.e., a compound in accordance with the present invention) for the muscarinic M1 receptors was determined in terms of its dissociation constant (Ki) calculated from the concentration (IC50) of the test compound which was required to cause a 50% inhibition of the binding of [^3 H]-telenzepine used as the labeled ligand.

[2] = biological target: T2, muscarinic M2 receptors (Rattus norvegicus, UniProt P10980); assay: Inhibition of binding to muscarinic M2 receptors ([3H]-N-methylscopolamine, heart membrane); conditions: 0.2 nM [3H]-N-methylscopolamine
T2 construct: a membrane specimen from the heart was used as the membrane specimen; from tissue; host or cells: rat heart membranes (SD rat)
T2 sequence (P10980 1-466): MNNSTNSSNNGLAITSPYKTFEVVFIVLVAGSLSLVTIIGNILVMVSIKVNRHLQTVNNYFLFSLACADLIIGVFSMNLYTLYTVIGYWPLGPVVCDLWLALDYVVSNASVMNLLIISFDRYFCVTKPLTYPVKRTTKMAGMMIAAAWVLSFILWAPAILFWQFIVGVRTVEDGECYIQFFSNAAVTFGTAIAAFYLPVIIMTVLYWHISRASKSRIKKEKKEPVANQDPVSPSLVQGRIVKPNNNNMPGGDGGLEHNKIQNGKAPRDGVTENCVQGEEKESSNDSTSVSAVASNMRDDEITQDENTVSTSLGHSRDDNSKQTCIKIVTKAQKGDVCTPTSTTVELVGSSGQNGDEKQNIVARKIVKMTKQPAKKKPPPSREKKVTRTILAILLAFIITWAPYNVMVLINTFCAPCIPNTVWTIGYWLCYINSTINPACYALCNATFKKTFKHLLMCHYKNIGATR
Description: as §1, with “The compounds of formula [I] in accordance with the present invention have a potent and selective inhibitory effect on binding to muscarinic receptors, as well as a potent and selective antagonistic effect on muscarinic receptors both in vitro and in vivo. […] In” for “In”
as §2
3) Tests for the inhibition of binding to the muscarinic M2 receptors
(§3) The nonspecific binding of [^3 H]-N-methylscopolamine to receptors was determined by the addition of 1 mM N-methylscopolamine.

[3] = biological target: muscarinic M3 receptor (Rattus norvegicus, UniProt P08483); assay: Inhibition of binding to muscarinic M3 receptors ([3H]-N-methylscopolamine, lacrimal gland membrane); parameters: a membrane specimen from the lacrimal glands was used as the membrane specimen; from tissue; host or cells: rat lacrimal gland membranes (SD rat); conditions: for M1/M3 / M2/M3: ratio of binding Ki; for M1/M3: M1 over M3; for M2/M3: M2 over M3
Description: as §1, §2
4) Tests for the inhibition of binding to the muscarinic M2 receptors
as §3

muscarinic M3 receptor, sequence (P08483 whole entry): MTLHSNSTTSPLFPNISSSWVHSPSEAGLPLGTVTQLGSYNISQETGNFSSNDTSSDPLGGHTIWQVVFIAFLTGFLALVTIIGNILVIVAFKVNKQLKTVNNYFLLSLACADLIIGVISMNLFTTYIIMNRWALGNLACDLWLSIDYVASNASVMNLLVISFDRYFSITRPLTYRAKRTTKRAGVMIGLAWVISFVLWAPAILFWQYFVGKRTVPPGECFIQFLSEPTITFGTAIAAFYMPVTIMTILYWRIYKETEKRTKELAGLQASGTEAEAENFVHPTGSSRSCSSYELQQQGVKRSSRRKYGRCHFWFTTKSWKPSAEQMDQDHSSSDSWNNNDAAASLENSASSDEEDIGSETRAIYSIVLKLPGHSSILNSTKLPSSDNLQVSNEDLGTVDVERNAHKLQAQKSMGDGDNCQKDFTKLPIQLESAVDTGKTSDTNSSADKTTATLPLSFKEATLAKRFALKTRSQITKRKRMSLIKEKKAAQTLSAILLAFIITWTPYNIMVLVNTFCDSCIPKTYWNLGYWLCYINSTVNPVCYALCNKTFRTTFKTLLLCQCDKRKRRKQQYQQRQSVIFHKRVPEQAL

SMILES: CC(C)=CCCN1CCC(NC(=O)C(O)(c2ccccc2)C2CCCC2)CC1 (stereo not shown) [Example 16, N-[1-(4-Methyl-3-pentenyl)piperidin-4-yl]-2-cyclopentyl-2-hydroxy-2-phenylacetamide]
- Ki [1]: 0.013 µM
- Ki [2]: 0.302 µM
- Ki [3]: 0.0031 µM
- M1/M3 [3]: 4.2
- M2/M3 [3]: 97

SMILES: CC[C@H](C)CCCN1CCC(NC(=O)[C@](O)(c2ccccc2)C2CCC2)CC1.Cl [Example 22, (2R)-N-{1-[(4S)-4-Methylhexyl]piperidin-4-yl}-2-cyclobutyl-2-hydroxy-2-phenylacetamide hydrochloride]
- Ki [1]: 0.12 µM
- Ki [2]: 1.4 µM
- Ki [3]: 0.0092 µM
- M1/M3 [3]: 13.0
- M2/M3 [3]: 152

SMILES: CC(C)=CCCN1CCC(NC(=O)[C@](O)(c2ccccc2)C2CCCC2)CC1.O=C(O)/C=C/C(=O)O [Example 28, (2R)-N-[1-(4-Methyl-3-pentenyl)piperidin-4-yl]-2-cyclopentyl-2-hydroxy-2-phenylacetamide fumarate]
- Ki [1]: 0.006 µM
- Ki [2]: 0.19 µM
- Ki [3]: 0.002 µM
- M1/M3 [3]: 3.0
- M2/M3 [3]: 96

SMILES: CC[C@H](C)CCCN1CCC(NC(=O)[C@](O)(c2ccccc2)C2CCCC2)CC1.Cl [Example 29, (2R)-N-{1-[(4S)-4-Methylhexyl]piperidin-4-yl}-2-cyclopentyl-2-hydroxy-2-phenylacetamide hydrochloride]
- Ki [1]: 0.04 µM
- Ki [2]: 1.1 µM
- Ki [3]: 0.0041 µM
- M1/M3 [3]: 10
- M2/M3 [3]: 270

SMILES: O=C(NC1CCN(CC2CCCCC2)CC1)C(O)(c1ccccc1)C1CCCC1 (stereo not shown) [Example 32, N-[1-(Cyclohexylmethyl)piperidin-4-yl]-2-cyclopentyl-2-hydroxy-2-phenylacetamide]
- Ki [2]: 2.3 µM
- Ki [3]: 0.011 µM
